From patent publication US20140039056A1, “BROMFENAC ORGANIC SALTS AND PREPARATION METHOD, COMPOSITION AND USE THEREOF” (SHENYANG XINGQI PHARMACEUTICAL CO., LTD., priority 2010, published 2014)
Structures can show the parent of a compound that is named as a salt. Where two headings read alike, the source gives them in different places.

Key:
[1] = In vitro transdermal absorption test (diffusion cell, ex vivo rat skin); conditions: for Accumulative osmolality: ex vivo rat skin, 32° C., n = 3; for Total osmolality of 24 h: 24 h accumulative osmolality x effective area 1.23 cm^2; for transdermal absorption amount relative to bromfenac sodium: in vitro; for Osmotic rate: slope of accumulative osmolality Q against time; for Osmotic percentage: total osmolality of 24 h / mass added to supplying chamber
Method: Preparation of solutions of bromfenac salts: bromfenac sodium, bromfenac diethylamine salt of Example 1, and bromfenac trometamol salt of Example 2 were precisely weighed separately to obtain 0.25 g samples, which were separately placed in 25 ml volumetric flasks, and phosphate buffered solution (pH value was 7.0) was used to reach the metered volume to obtain stock solutions for standby use.
Chromatography conditions: detector: ultraviolet absorption detector (wavelength: 266 nm). Chromatography column: octadecyl silica column (4.0 mm×150 mm, 5 μm). Mobile phase: precisely weighed ammonium acetate 3.85 g, added with water to the metered volume of 1000 mL. 600 mL of this solution was taken, and added with 250 mL of methanol and 150 mL of tetrahydrofuran. Flow rate: 1.5 mL/min.
Plotting standard curves: bromfenac sodium, bromfenac diethylamine salt and bromfenac trometamol salt in suitable amounts were precisely weighed separately, dissolved in mobile phase, diluted separately to form test solutions with concentrations of 10, 30, 60, 120, 300, 700 μg/ml, which were separately weighed precisely to take 20 μl and injected into chromatography and separately assayed.
Transdermal absorption test: ex vivo skins of back and abdomen of 200-260 g rats were taken and used as osmotic membranes, which were fixed with suture on diffusion cells (diffusion cells having a diameter of 1.25 cm, and an effective area of 1.23 cm^2). Stock solutions of bromfenac sodium, bromfenac diethylamine salt and bromfenac trometamol salt in an amount of 2 ml were separately added to supplying chamber, 100 ml of physiological saline was used as receiving solution in receiving cells, kept at a constant temperature of 32° C., stirred (250 r/min). 5 ml samples of receiving solutions were taken precisely with time intervals of 0, 2, 4, 6, 8, 10, 12, 24 hours, filtered, measured according to the above method to determine first-order light spectrum derivative absorption values and calculate contents, and accumulative osmolality Q was calculated according to the following formula;
In the above formula, c is concentration of receiving solution sample; v1 is volume of sample as taken at every turn; v2 is volume of diffusion cell; A is diffusion area. Diagrams were plotted by using t as abscissa, Q as ordinate to obtain osmosis curves of bromfenac sodium, bromfenac diethylamine salt and bromfenac trometamol salt; linear regression was performed using accumulative osmolality Q against time, the obtained slope K was transdermal osmotic rate; the accumulative osmolality of 24 hours was multiplied by the effective osmotic area (1.23 cm^2) to obtain total osmolality of 24 hours; and the total osmolality of 24 hours was divided by the mass of the added product in the supplying chamber to obtain osmotic percentage.

[2] = Chemical stability in solid state (accelerated stability test at 60° C.); format: physicochemical; conditions: for change of content in accelerated test at 60° C.: solid state, in words
Method: HPLC Analysis Conditions:
Detector: ultraviolet absorption detector (wavelength: 266 nm).
Chromatography column: octadecyl silica gel column (4.0 mm×150 mm, 5 um).
Mobile phase: 3.85 g of ammonium acetate was precisely weighed, added with water to reach the metered volume of 1000 mL.

[3] = cited from earlier work
[4] = analgesic effect; cited from earlier work

SMILES	Accumulative osmolality ([1]; 2 hours) [μg/cm^2]	Accumulative osmolality ([1]; 4 hours) [μg/cm^2]	Accumulative osmolality ([1]; 6 hours) [μg/cm^2]	Accumulative osmolality ([1]; 8 hours) [μg/cm^2]	Accumulative osmolality ([1]; 10 hours) [μg/cm^2]	Accumulative osmolality ([1]; 12 hours) [μg/cm^2]	Total osmolality of 24 h [1] [µg]	Accumulative osmolality ([1]; 24 hours) [μg/cm^2]	transdermal absorption amount relative to bromfenac sodium ([1]; 24 hours) [times]	Osmotic rate [1] [μg/cm^2 · h^−1]	Osmotic percentage [1] [%]	content (HPLC), solid state ([2]; 60° C., 1 week) [%]	content (HPLC), solid state ([2]; 60° C., 2 weeks) [%]	content (HPLC), solid state ([2]; 60° C., 3 weeks) [%]	content (HPLC), solid state ([2]; Initial) [%]	change of content in accelerated test at 60° C. [2]	other results
Nc1c(CC(=O)O)cccc1C(=O)c1ccc(Br)cc1 [Bromfenac diethylamine salt, bromfenac diethylamine salt]	322.8	964.1	1898.6	2721.8	3303.0	4123.6	10360.0	8426.7	1.85	369.04	51.80	99.5	99.3	99.2	99.5	no significant substantial change	
Nc1c(CC(=O)[O-])cccc1C(=O)c1ccc(Br)cc1.[Na+] [Bromfenac sodium, 2-amino-3-(4-bromobenzoyl)phenylacetic acid sodium salt sesquialter hydrate, reference compound]	45.5	118.5	340.8	708.6	1231.3	2214.5	5600.0	4554.1		219.05	28.0	99.5	99.3	99.1	99.6	no significant substantial change	solubility ([3]; 0.1M hydrochloric acid solution): almost insoluble; solubility ([3]; acetone): almost insoluble; solubility ([3]; acetonitrile): almost insoluble; solubility ([3]; ethanol): slight soluble; solubility ([3]; methanol): soluble; solubility ([3]; water): soluble; potency relative to other non-steroid anti-inflammatory agents [4]: 10 times
Nc1c(CC(=O)O)cccc1C(=O)c1ccc(Br)cc1 [Bromfenac trometamol salt, bromfenac trometamol salt]	277.2	632.5	1268.3	2089.6	2736.1	3085.7	9010.0	7326.9	1.61	320.61	45.05		99.4	99.2		no significant substantial change	
